Article PMC5895798, “Allosteric regulation alters carrier domain translocation in pyruvate carboxylase” (Nature Communications, 2018)
Like-named read-outs stand apart in the source and are kept apart here.

Assays:
Assay type in all cases: biochemical
RePC [1] = biological target: T1, RePC (Rhizobium etli, UniProt Q2K340); assay: coupled malate dehydrogenase assay of pyruvate carboxylation, […] nm; conditions: hybrid tetramer population (hybrid A) of two co-expressed domain-inactivated mutants; no acetyl CoA; 25 mM NaHCO3, 2.5 mM MgATP, 12 mM pyruvate, pH 7.8, 25 °C; allosteric; read-out: + 0 mM acetyl coenzyme A / Ki
T1 construct: gene pyc; full length, N-terminal (His)9 tag, pET-17b, E. coli BL21(DE3) with BirA (biotinylated), 126 kDa subunit, homotetramer

AnPC [2] = biological target: T2, AnPC (Aspergillus nidulans, UniProt Q5B4R8); assay: as above; conditions: read-out: + 0 mM acetyl coenzyme A / Ki
T2 construct: gene ANIA_04462; full length, N-terminal (His)9 tag, pET-17b, E. coli BL21(DE3) with BirA (biotinylated), 130 kDa subunit, tetramer
T2 sequence (Q5B4R8 1-1196): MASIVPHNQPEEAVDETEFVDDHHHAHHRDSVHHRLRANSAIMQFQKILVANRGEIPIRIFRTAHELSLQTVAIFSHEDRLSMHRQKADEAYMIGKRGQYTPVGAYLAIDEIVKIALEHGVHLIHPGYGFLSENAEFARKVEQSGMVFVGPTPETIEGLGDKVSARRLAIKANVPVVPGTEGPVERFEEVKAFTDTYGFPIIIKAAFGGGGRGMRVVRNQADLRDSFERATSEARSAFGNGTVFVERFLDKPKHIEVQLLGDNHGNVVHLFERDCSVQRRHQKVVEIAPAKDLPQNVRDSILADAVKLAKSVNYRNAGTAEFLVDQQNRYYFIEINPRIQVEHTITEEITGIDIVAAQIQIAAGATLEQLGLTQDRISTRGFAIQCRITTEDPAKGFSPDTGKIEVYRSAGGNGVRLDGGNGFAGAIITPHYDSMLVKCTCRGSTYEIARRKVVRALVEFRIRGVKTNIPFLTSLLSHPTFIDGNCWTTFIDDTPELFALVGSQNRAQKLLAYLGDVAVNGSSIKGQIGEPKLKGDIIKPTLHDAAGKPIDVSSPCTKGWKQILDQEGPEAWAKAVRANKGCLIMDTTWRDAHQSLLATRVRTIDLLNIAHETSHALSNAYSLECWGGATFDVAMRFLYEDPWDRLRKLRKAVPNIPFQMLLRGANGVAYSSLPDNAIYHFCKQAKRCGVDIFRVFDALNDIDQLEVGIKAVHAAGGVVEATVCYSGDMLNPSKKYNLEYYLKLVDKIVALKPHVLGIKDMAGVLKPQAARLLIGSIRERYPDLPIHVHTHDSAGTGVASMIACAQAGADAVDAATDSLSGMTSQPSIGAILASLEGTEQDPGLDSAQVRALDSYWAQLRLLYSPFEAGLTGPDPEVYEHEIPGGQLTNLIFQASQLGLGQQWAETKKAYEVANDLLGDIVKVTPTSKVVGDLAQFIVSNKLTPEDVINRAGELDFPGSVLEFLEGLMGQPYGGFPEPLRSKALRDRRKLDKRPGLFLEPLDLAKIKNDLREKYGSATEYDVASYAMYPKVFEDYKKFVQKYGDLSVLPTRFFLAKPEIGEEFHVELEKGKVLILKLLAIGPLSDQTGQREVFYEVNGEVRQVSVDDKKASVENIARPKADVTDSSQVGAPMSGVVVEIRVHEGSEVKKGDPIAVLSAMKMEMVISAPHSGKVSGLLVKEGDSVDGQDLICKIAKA

RePC [3] = biological target: T1, RePC; assay: as above; conditions: read-out: + 0 mM acetyl coenzyme A / Ki
AnPC [4] = biological target: T2, AnPC; assay: shift of L-aspartate Ki in coupled assay; conditions: 0.1 mM acetyl CoA; competes with L-aspartate, no activation; pH 7.8, 25 °C

Molecule `N[C@@H](CC(=O)O)C(=O)O` [L-aspartate] has a Ki (RePC [1]) of 6.2 ± 0.5 mM, a Ki (AnPC [2]) of 2.6 ± 0.1 mM and a Ki (RePC [3]) of 4.7 ± 0.7 mM.

For `CC(=O)SCCNC(=O)CCNC(=O)[C@H](O)C(C)(C)COP(=O)(O)OP(=O)(O)OC[C@H]1O[C@@H](n2cnc3c(N)ncnc32)[C@H](O)[C@@H]1OP(=O)(O)O` [acetyl CoA], the “shift of L-aspartate Ki in coupled assay” value (AnPC [4]) was “This confirms that acetyl CoA does, indeed, bind to AnPC”.
